# Source: patent publication US6509355B1, “Treatment of disorders of the outer retina” (Alcon Laboratories, Inc., priority 1998, dated 2003)
# Tests used:
# [1] = tested on: NMDA receptor; experiment: Binding affinity to the NMDA receptor; settings: order of magnitude only
# [2] = tested on: retinal laser burn; experiment: Retinal laser burn spread damage: argon laser, lesion area in outer nuclear layer after 48 hours; type: in vivo, Pigmented Long Evans rats
# Description: The eye is exposed to high-energy laser radiation during the performance of retinal photocoagulation therapy (grid, focal and […]) or during photodynamic therapy. This type of therapy is often employed during treatment of choroidal neovascularization, proliferative stages of diabetic retinopathy, retinopathy of prematurity, or to repair retinal holes or […]. Associated with this laser therapy is tissue destruction leading to vision deterioration. […] It is believed that this vision loss results directly from the expansion of the laser-induced lesion to surrounding normal neurosensory retina and RPE. Singlet oxygen and other reactive oxygen species as well as cytokines are generated in the area of the laser burn and thought to migrate laterally to cause collateral retinal damage. Retinal morphology changes in this area are similar to changes in our photo-oxidative retinopathy paradigm. […] Pigmented Long Evans rats were randomly assigned to control, vehicle or drug dosed groups. […] After a 48-hour recovery period, eyes were fixed, dehydrated, and embedded in plastic resin. Histological assessment of laser burns was performed by flatmounting the retina and sectioning the tissue in a plane tangential to the nerve fiber layer. Using this technique, the lesion area in the outer nuclear layer could be calculated using an image analysis system. […] The laser bum center was marked by; complete closure of all capillaries, arterioles and venuoles; perforation of Bruch's membrane; pyknosis and necrosis of all photoreceptor nuclei; and destruction of inner and outer segments. Spread of the lesion into peripheral retina consisted of shortening of outer segments, inner segment swelling, clumping of melanin granules in the RPE and choroid, and vacuolization of the RPE.
# [3] = tested on: photo-oxidative induced retinopathy; experiment: Photo-oxidative induced retinopathy: 6-hour blue light exposure, ERG after 5-day recovery; settings: rat, in vivo
# Description: Photic retinopathy results from excessive excitation of the retinal pigment epithelium and neuroretina by absorption of visible or near ultraviolet radiation. Lesion severity is dependent upon wavelength, irradiance, exposure duration, species, ocular pigmentation, and age. Damage may result from peroxidation of cellular membranes, inactivation of mitochondrial enzymes such as cytochrome oxidase, or increased intracellular calcium. Cellular damage resulting from photo-oxidative stress leads to cell death by apoptosis, (Shahinfar, S., Edward. D. P. and Tso, M. O. (1991), A pathologic study of photoreceptor cell death in retinal photic injury. Current Eye Research, 10:47-59: Abler, A. S., Chang, C. J., Fu, J. and Tso, M. O. (1994), Photic injury triggers apoptosis of photoreceptor cells. Investigative Ophthalmology & Visual Science, 35(Suppl):1517). Oxidative stress induced apoptosis has been implicated as a cause of many ocular pathologies, including, iatrogenic retinopathy, macular degeneration, retinitis pigmentosa and other forms of heredodegenerative disease, ischemic retinopathy, retinal tears, retinal detachment, glaucoma and retinal neovascularization (Chang, C. J., Lai, W. W., Edward, D. P. and Tso, M. O. (1995), Apoptotic photoreceptor cell death after traumatic retinal detachment in humans, Archives of Ophthalmology, 113:880-886: Portera-Cailliau, C., Sung, C. H., Nathans, J. and Adler, R. (1994), Apoptotic photoreceptor cell death in mouse models of retinitis pigmentosa, Proceedings of National Academy of Science (U.S.A.), 91:974-978; Buchi, E. R. (1992), Cell death in the rat retina after a pressure-induced ischaemia-reperfusion insult: an electron microscopic study. I. Ganglion cell layer and inner nuclear layer, Experimental Eye Research, 55:605-613; Quigley, H. A., Nickells. R. W., Kerrigan, L. A., Pease, M. E., Thibault, D. J. and Zack, D. J. (1995), Retinal ganglion cell death in experimental glaucoma and after axotomy occurs by apoptosis, Investigative Ophthalmology & Visual Science, 36:774-786). […] Alan R. Liss, Inc., New York; Collier, R., W. Waldron and Zigman, S. (1989), Temporal sequence of changes to the gray squirrel retina after near-UV exposure, Investigative Ophthalmology & Visual Science, 30:631-637), non-human primates (Tso, M. O. M. (1973), Photic maculopathy in rhesus monkey. A light and electron microscopic study. Investigative Ophthalmology & Visual Science, 12:17-34; Ham, W. T., Jr., Ruffolo, J. J., Jr., Mueller, H. A. and Guerry, D., III. (1980), The nature of retinal radiation damage: dependence on wavelength, power level and exposure time, Vision Research, 20:1105-1111; Sperling, H. G., Johnson, C. and Harwerth, R. S. (1980), Differential spectral photic damage to primate cones, Vision Research, 20:1117-1125: Sykes, S. M., Robison, W. G., Jr., Waxler, M. and Kuwabara, T. (1981), Damage to the monkey retina by broad spectrum fluorescent light, Investigative Ophthalmology & Visual Science, 20:425-434; Lawwill, T. (1982), Three major pathologic processes caused by light in the primate retina: A search for mechanisms, Transactions of the American Ophthalmology Society, 80:517-577), and man (Marshall, J. Hamilton, A. M. and Bird, A. C. (1975), Histopathology of ruby and argon laser lesions in monkey and human retina, British Journal of Ophthalmology, 59:610-630; Green, W. R. and Robertson, D. M. (1991), Pathologic findings of photic retinopathy in the human eye. American Journal of Ophthalmology, 112:520-27).
# [4] = tested on: light induced functional or morphological changes; experiment: Light damage paradigms (light induced damage paradigm); settings: in vivo
# Method: Eliprodil was evaluated in our light induced damage paradigm, a model of retinal degenerative diseases such as retinitis pigmentosa and age-related macular degeneration.
compound,measurement,setting,value
O[C@H](CN1CCC(Cc2ccc(F)cc2)CC1)c1ccc(Cl)cc1 [S-eliprodil],binding affinity to the NMDA receptor,[1],millimolar
same,Laser burn lesion area,[2]; 20 mg/kg IP,"43,098.5 μ^2"
same,lesion area smaller than in vehicle dosed rats,[2]; 20 mg/kg IP,15%
same,significance of lesion area difference from vehicle,[2]; 20 mg/kg IP,not significantly different
same,reduction of collateral retinal damage around the laser burn (summary),[2]; summary,devoid of significant efficacy
same,potency rank as retinoprotective agent in the series,[3],most potent
same,potency relative to eliprodil (racemic),[3],two-fold more potent
same,difference in ERG response amplitude compared to vehicle dosed rats,"[3]; ip, 5 mg/kg",No significant difference
same,"Maximum a-wave response, % of normal","[3]; ip, 10 mg/kg",64%
same,"Maximum b-wave response, % of normal","[3]; ip, 10 mg/kg",76%
same,protection of outer and inner retina function against light induced retinal degeneration,"[3]; ip, 10 mg/kg",Significant protection
same,"Response amplitudes, fold higher than vehicle dosed rats","[3]; ip, 20 mg/kg",about 2 fold
same,maximum a-wave response amplitude,"[3]; ip, 20 mg/kg",418.04 μV
same,maximum b-wave response amplitude,"[3]; ip, 20 mg/kg",1015.95 μV
same,protection of outer and inner retina function against light induced retinal degeneration,"[3]; ip, 20 mg/kg",Significant protection
same,"response amplitudes, % of normal","[3]; ip, 20 mg/kg",approximately 62%
COCCOC(=O)C1=C(C)NC(C)=C(C(=O)OC(C)C)C1c1cccc([N+](=O)[O-])c1 (stereo not drawn) [nimodipine],preventing light induced functional or morphological changes,[4],no effect
Fc1ccc(C(c2ccc(F)cc2)N2CCN(C/C=C/c3ccccc3)CC2)cc1 [flunarizine],preventing light induced functional or morphological changes,[4],moderately effective
COC(=O)C1=C(C)NC(C)=C(C(=O)O[C@H]2CCN(Cc3ccccc3)C2)[C@H]1c1cccc([N+](=O)[O-])c1 [barnidipine],preventing light induced functional or morphological changes,[4],no effect
Cc1cccc(C)c1NC(=O)CN1CCN(CCCC(c2ccc(F)cc2)c2ccc(F)cc2)CC1 [lidoflazine],preventing light induced functional or morphological changes,[4],no effect
prenylamine lactate,preventing light induced functional or morphological changes,[4],no effect
"CC12CC3CC(C)(C1)CC(N)(C3)C2 [memantine, reference compound]",dose dependence of protection of outer and inner retina function,[3],dose-dependent protection
same,protection of outer and inner retina function against light induced retinal degeneration,"[3]; ip, 2 mg/kg",no significant protection
same,ERG responses compared with control (normal),"[3]; ip, 20 mg/kg",significantly lower than normal
same,protection of outer and inner retina function against light induced retinal degeneration,"[3]; ip, 20 mg/kg",significant protection
Cc1c(C)c2c(c(C)c1O)CC[C@@](C)(CCC[C@H](C)CCC[C@H](C)CCCC(C)C)O2 [alpha-tocopherol],preventing light induced functional or morphological changes,[4],ineffective
N=C(N)NC(=O)c1nc(Cl)c(N)nc1N [amiloride],preventing light induced functional or morphological changes,[4],no effect
